Consider one molecule from paper PMC2848328 (The Journal of biological chemistry, 2006).

For orientation: inhibition means the share of the control response that was lost under treatment.

This test concerns the target T1, AMAN-2 (F58H1.1; Golgi α-mannosidase II) (Caenorhabditis elegans, UniProt Q2PJ74).
T1 sequence (Q2PJ74 125-1145): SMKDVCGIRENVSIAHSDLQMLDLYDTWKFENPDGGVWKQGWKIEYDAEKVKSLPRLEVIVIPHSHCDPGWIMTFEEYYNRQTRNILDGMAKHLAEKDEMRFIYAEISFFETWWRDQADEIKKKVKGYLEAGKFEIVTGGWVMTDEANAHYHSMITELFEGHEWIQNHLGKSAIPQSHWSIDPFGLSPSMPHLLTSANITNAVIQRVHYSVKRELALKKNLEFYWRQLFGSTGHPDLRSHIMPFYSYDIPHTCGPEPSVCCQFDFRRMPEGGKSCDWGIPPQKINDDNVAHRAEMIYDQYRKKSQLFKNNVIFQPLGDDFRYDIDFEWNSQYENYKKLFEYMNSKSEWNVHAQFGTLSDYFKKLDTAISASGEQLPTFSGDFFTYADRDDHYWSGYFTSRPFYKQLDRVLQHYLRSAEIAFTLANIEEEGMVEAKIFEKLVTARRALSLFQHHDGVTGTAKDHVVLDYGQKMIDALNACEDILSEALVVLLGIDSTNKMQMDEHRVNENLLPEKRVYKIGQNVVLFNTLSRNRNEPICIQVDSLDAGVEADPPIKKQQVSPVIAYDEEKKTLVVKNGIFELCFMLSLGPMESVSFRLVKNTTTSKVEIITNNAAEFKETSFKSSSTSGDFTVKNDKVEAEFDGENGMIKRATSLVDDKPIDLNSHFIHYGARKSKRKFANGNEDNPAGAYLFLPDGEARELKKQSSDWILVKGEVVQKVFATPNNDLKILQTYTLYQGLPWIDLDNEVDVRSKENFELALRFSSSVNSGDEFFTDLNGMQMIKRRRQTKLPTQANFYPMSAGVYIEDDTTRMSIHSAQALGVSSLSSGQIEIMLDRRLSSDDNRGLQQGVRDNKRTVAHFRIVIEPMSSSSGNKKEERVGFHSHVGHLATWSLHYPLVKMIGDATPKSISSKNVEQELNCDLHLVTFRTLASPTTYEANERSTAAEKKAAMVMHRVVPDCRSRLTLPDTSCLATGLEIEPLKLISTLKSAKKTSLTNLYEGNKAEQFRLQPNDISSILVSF
As to the kind of experiment: inhibition of p-nitrophenyl-α-mannoside hydrolysis, A405. The class given is biochemical. The settings on record: read-out: % inhibition at 1 mM.

On to `OC[C@H]1NC[C@@H](O)[C@@H](O)[C@@H]1O` [deoxymannojirimycin], for which the inhibition at 1000 µM was approximately 45%.
